This note sets out measurements from ChEMBL document CHEMBL1130052, “Substituted [(4-phenylpiperazinyl)-methyl]benzamides: selective dopamine D4 agonists” (J Med Chem, 1997).

Where only a bound is given, the exact number is not on record here.

One assay has as its target D(2) dopamine receptor (Homo sapiens, UniProt P14416). Kind of assay: Binding affinity for human Dopamine receptor D2 expressed in CHO K1 transfected cells using [3H]spiperone as radioligand. It counts as cell-based.
The target of the next assay is T1, D(4) dopamine receptor (Homo sapiens, UniProt P21917).
T1 sequence (P21917 whole entry): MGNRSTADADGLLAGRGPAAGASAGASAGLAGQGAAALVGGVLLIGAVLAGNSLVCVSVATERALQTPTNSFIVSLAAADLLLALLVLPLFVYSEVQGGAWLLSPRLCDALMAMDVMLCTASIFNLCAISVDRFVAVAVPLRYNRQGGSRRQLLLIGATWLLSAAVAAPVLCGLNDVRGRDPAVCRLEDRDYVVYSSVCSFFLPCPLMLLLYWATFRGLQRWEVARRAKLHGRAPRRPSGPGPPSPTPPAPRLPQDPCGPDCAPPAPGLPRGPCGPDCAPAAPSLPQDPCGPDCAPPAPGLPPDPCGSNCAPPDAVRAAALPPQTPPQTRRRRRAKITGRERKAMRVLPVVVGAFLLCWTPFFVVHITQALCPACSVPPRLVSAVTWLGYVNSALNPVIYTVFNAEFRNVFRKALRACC
Kind of assay: biochemical.

A further assay addresses D(3) dopamine receptor (Homo sapiens, UniProt P35462). Nature of the assay: Binding affinity for human Dopamine receptor D3 expressed in CHO K1 transfected cells using [3H]spiperone as radioligand. It counts as cell-based.
In assay [1] the target is T2, 5-hydroxytryptamine receptor 1A (Mus musculus, UniProt Q64264).
T2 sequence (Q64264 whole entry): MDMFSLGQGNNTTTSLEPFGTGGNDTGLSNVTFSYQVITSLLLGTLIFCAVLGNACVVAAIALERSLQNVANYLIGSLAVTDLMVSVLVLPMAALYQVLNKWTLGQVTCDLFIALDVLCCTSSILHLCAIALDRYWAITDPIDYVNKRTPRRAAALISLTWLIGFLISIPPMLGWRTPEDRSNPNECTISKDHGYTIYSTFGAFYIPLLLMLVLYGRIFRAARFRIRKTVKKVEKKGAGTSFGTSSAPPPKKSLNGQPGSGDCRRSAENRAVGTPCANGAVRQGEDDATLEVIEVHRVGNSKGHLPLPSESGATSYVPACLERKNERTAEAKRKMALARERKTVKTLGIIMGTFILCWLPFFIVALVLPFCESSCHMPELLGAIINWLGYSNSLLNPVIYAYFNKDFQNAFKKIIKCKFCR
Nature of the assay: Binding affinity at 5-hydroxytryptamine 1A receptor.

Assay [2] has as its target 5-hydroxytryptamine receptor 2A (Homo sapiens, UniProt P28223). Kind of assay: Binding affinity at 5-hydroxytryptamine 2A receptor.

The Ki is a measure of affinity in units of concentration, obtained from inhibition or displacement.

Chain of D(2) dopamine receptor (P14416 whole entry): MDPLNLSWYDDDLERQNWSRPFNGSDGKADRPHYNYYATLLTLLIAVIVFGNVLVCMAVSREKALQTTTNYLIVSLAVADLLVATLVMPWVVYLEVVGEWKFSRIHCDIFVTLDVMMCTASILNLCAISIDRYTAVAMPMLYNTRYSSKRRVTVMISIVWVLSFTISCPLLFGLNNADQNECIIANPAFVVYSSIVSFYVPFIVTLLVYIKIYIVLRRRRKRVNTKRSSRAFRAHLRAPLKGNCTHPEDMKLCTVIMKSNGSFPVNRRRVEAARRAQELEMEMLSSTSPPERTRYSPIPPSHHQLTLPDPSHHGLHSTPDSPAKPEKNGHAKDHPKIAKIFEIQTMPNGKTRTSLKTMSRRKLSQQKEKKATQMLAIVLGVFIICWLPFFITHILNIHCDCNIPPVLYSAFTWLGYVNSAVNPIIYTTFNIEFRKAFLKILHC
Chain of D(3) dopamine receptor (P35462 whole entry): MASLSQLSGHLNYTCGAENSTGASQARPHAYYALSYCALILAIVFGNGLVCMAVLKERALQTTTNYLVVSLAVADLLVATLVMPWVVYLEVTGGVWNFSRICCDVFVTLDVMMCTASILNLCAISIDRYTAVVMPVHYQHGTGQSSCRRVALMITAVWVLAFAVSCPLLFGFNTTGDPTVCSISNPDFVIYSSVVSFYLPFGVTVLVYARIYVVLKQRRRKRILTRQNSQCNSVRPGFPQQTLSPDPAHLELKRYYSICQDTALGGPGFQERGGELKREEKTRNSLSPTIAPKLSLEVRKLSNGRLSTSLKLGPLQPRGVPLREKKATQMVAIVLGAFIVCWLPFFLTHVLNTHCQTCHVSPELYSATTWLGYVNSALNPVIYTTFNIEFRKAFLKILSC
Chain of 5-hydroxytryptamine receptor 2A (P28223 whole entry): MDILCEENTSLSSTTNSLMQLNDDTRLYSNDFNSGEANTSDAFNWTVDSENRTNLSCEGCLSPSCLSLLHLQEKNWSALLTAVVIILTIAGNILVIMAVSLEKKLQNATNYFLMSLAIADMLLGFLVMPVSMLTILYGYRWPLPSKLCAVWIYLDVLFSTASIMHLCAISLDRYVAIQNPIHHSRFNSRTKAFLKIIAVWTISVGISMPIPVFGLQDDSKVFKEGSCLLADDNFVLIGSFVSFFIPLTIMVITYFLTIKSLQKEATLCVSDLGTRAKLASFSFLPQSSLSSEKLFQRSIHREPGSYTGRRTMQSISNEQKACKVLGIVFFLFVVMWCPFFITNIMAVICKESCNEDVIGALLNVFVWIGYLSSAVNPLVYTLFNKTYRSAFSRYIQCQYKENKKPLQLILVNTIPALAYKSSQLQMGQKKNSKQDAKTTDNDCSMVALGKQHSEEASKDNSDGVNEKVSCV
Description for D(4) dopamine receptor: Binding affinity for human Dopamine receptor D4 expressed in CHO K1 transfected cells using [3H]spiperone as radioligand

For `O=C(NCN1CCN(c2ccccc2Cl)CC1)c1cccc(Cl)c1`, the Ki was 2420 nM on D(2) dopamine receptor, 41 nM at D(4) dopamine receptor and 364 nM at D(3) dopamine receptor.
For `COc1ccccc1N1CCN(CNC(=O)c2cccc(C)c2)CC1` the same measures were 835 nM, 6.7 nM and 2480 nM.
Turning to `O=C(NCN1CCN(c2ccccc2Cl)CC1)c1ccc(Cl)cc1`, the Ki was 5.3 nM on D(4) dopamine receptor and 66 nM at D(3) dopamine receptor.
As to `Cc1cccc(C(=O)NCN2CCN(c3ccccc3Cl)CC2)c1`, the Ki at D(2) dopamine receptor is 1330 nM; on D(4) dopamine receptor, 27 nM; on D(3) dopamine receptor, 464 nM.
Regarding `O=C(NCN1CCN(c2ccccc2Cl)CC1)c1ccccc1`, the Ki at D(2) dopamine receptor was determined as 1500 nM; on D(4) dopamine receptor it was 32 nM; on D(3) dopamine receptor, 177 nM.
The like results for `Cc1ccc(C(=O)NCN2CCN(c3ccccc3C#N)CC2)cc1` were, in that order, 1150 nM, 6.5 nM and 377 nM.
For the compound `N#Cc1ccccc1N1CCN(CNC(=O)c2ccccc2)CC1`, the inhibitory constant (Ki) on D(2) dopamine receptor is 4180 nM; on D(4) dopamine receptor, 27 nM; on D(3) dopamine receptor it was over 3000 nM.
In the case of `COc1ccccc1N1CCN(CNC(=O)c2ccccc2)CC1`, the Ki is 22 nM at D(4) dopamine receptor and 2470 nM at D(3) dopamine receptor.
In the case of `COc1ccccc1N1CCN(CNC(=O)c2cccc(Cl)c2)CC1`, the Ki at D(2) dopamine receptor came to 451 nM; at D(4) dopamine receptor, 15 nM; on D(3) dopamine receptor, 1450 nM.
Regarding `COc1ccccc1N1CCN(CNC(=O)c2ccc(Cl)cc2)CC1`, the inhibitory constant (Ki) on D(2) dopamine receptor is 349 nM; at D(4) dopamine receptor it was 14 nM; at D(3) dopamine receptor, 268 nM.
Consider `N#Cc1ccccc1N1CCN(CNC(=O)c2cccc(Cl)c2)CC1`, for which the Ki on D(2) dopamine receptor was 897 nM; at D(4) dopamine receptor, 34 nM; at D(3) dopamine receptor, 2270 nM.
As for `N#Cc1ccccc1N1CCN(CNC(=O)c2ccc(Cl)cc2)CC1`, the Ki is 929 nM on D(2) dopamine receptor, 5.5 nM at D(4) dopamine receptor and 600 nM on D(3) dopamine receptor.
The like results for `COc1ccccc1N1CCN(CNC(=O)c2ccc(C)cc2)CC1` were, in that order, 291 nM, 7.7 nM and 174 nM.
The like results for `Cc1ccc(C(=O)NCN2CCN(c3ccccc3Cl)CC2)cc1` were, in that order, 466 nM, 12 nM and 49 nM.
With `Cc1cccc(C(=O)NCN2CCN(c3ccccc3C#N)CC2)c1` [PD-168,077], the Ki on D(2) dopamine receptor was 3740 nM; in assay [1], 385 nM; at D(3) dopamine receptor it was 2810 nM; in assay [2], 4010 nM.
